Consider 8 molecules from PubChem BioAssay (NCI).

Assay in all cases: NCI anticancer screen, dose series, 48 h
Experiment [1] has as its system BT-549 breast.
The test system of experiment [2] is HCT-116 colon.
For experiment [3], the system named is KM12 colon.
For experiment [4], the system named is LOX IMVI melanoma.
Experiment [5] deals with NCI-H23 lung.
In experiment [6] the test system is OVCAR-3 ovarian.
In experiment [7] the test system is PC-3 prostate.
For experiment [8], the system named is SK-MEL-5 melanoma.
The subject of experiment [9] is SNB-19 CNS.
In experiment [10] the test system is TK-10 renal.

Several values for one entry are separate records, joined by “and”; a condition that tells them apart may be missing. Equal entries are not always repeated.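 Cultured in 96-well plates, cells were exposed to test compound for 48 hours across five concentrations. GI50 is the concentration that inhibits growth by half. At the TGI there is no net growth.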 Where a SMILES comes first, the peptide text is derived from it. [ ]: non-standard residue; d: D form. The star is where a group is joined. ξ: configuration not given here. dIva = CC[C@@](C)(N)C(=O)O; Aib = CC(C)(N)C(=O)O; ξP = O=C(O)C1CCCN1; βAla = NCCC(=O)O; X5 = OCN* Where only a bound is given, the exact number is not on record here.

On to `CC(=O)Nc1cc(CN2CCCCC2)c(O)c2ncccc12`, for which the TGI in experiment [1] was more than 100 µM; in experiment [2], 75.9 µM; in experiment [3], more than 100 µM; in experiment [4] it was 84.8 µM; in [5], more than 100 µM; in experiment [6], 96.9 µM. Further, the TGI in experiment [7] is 81 µM; in experiment [8] it was more than 100 µM; in [9] it was more than 100 µM; in experiment [10] it was more than 100 µM.
Turning to `C[C@H](c1ccc(Cl)cc1[N+](=O)[O-])N1C(=O)c2cc(I)ccc2NC(=O)[C@H]1c1ccc(Cl)cc1`, the GI50 is more than 100 µM in experiment [1]; 5.78 µM in experiment [2]; more than 100 µM in experiment [3]; more than 100 µM in [4]; more than 100 µM in experiment [5]; 8.83 µM in experiment [6]. For the same molecule, the GI50 was 4.86 µM in experiment [7], more than 100 µM in [8], more than 100 µM in experiment [9] and more than 100 µM in [10]. Besides, the TGI in experiment [1], in experiment [2], in [3], in [4], in [5] and in [6] was more than 100 µM each time. In addition, the TGI in experiment [7], in experiment [8], in experiment [9] and in experiment [10] was more than 100 µM in each case.
In the case of `COc1ccc(-c2cc(=O)c3cccnc3[nH]2)cc1`, the TGI in [1] was more than 100 µM; in [2] it was 80.3 µM; in experiment [3] it was more than 100 µM; in experiment [4] it was more than 100 µM; in experiment [5] it was more than 100 µM; in experiment [6], more than 100 µM. The TGI in experiment [7], in [8], in [9] and in [10] was more than 100 µM throughout. Also, the GI50 is 17.6 µM in experiment [2], 29.9 µM in [6], 31.7 µM in experiment [7] and 35 µM in experiment [8].
For the molecule `C=CC(=O)Nc1cccc(Nc2nc(Nc3ccc(N4CCN(C(C)=O)CC4)cc3OC)ncc2C(F)(F)F)c1`, the GI50 in [1] is 4.14 µM; in experiment [2] it was 3.96 µM and 2.54 µM; in experiment [3], 7.48 µM and 5.58 µM; in [4], 2.71 µM and 3.04 µM; in experiment [5], 5.27 µM and 5.47 µM; in [6] it was 3.69 µM and 1.07 µM. Besides, the GI50 in experiment [7] is 9.75 µM and 4.73 µM; in experiment [8] it was 4.12 µM and 4.3 µM; in experiment [9], 5.83 µM; in [10], 0.32 µM and 0.441 µM. Besides, the TGI in [1] is > 10 µM and 10.6 µM; in experiment [2] it was more than 54.4 µM; in experiment [3], > 10 µM and 38.6 µM; in experiment [4], > 10 µM and 14.2 µM; in [5], > 10 µM and 30 µM; in experiment [6], more than 30.3 µM. Further, the TGI in experiment [7] was > 10 µM and 27.7 µM; in [8], > 10 µM and 17.9 µM; in experiment [9], more than 100 µM; in experiment [10] it was 2.16 µM and 4.03 µM.
For `CSc1nc(-c2cccc(NC(=O)CCl)c2)c(C#N)c(=O)n1C`, the GI50 is 1.51 µM in experiment [1]; 0.621 µM in [2]; 1.82 µM in experiment [3]; 0.0184 µM in experiment [4]; 1.46 µM in [5]; 1.7 µM in experiment [6]. In addition, the GI50 in experiment [7] is 2.4 µM; in experiment [8], 1.33 µM; in experiment [9], 1.63 µM; in experiment [10], 2.38 µM. Besides, the TGI in [1] is 3.02 µM; in experiment [2], 4.07 µM; in experiment [3], 3.54 µM; in [4], 0.0342 µM; in [5], 3.01 µM; in experiment [6], 3.2 µM. The TGI in experiment [7] stood at 8.12 µM; in experiment [8], 2.74 µM; in experiment [9] it was 3.29 µM; in [10], 5.53 µM.
Consider `CC[C@@](C)(NC(=O)[C@H](C)NC(=O)CCNC(=O)C(C)(C)NC(=O)[C@H](C)NC(=O)[C@@H]1CCCN1C(=O)[C@@](C)(CC)NC(=O)[C@H](Cc1ccccc1)NC(=O)C1CCCN1C(=O)C(C)(C)NC(=O)C1CCCN1C(=O)C(C)(C)NC(C)=O)C(=O)NCCC(=O)N[C@@H](CC(C)C)C(=O)NC(C)(C)C(=O)NCCC(=O)N[C@@H](CC(C)C)C(=O)NC(C)(C)C(=O)NC(C)(C)C(=O)N[C@@H](CC(C)C)C(=O)NCCC(=O)NCO` (some centres undefined) (Ac-[Aib][ξP][Aib][ξP]F[dIva]PA[Aib][βAla]A[dIva][βAla]L[Aib][βAla]L[Aib][Aib]L[βAla]-X5), for which the GI50 was 0.0699 µM in experiment [1]; 0.218 µM in experiment [2]; 0.168 µM in experiment [3]; 0.208 µM in experiment [4]; 0.088 µM in experiment [5]; 0.144 µM in [6]. Also, the GI50 in experiment [7] was 0.0765 µM; in [8], 0.0991 µM; in experiment [9] it was 0.0952 µM; in [10], 0.153 µM. In addition, the TGI amounted to 0.266 µM in experiment [1]; 0.431 µM in [2]; 0.368 µM in experiment [3]; 0.428 µM in experiment [4]; 0.32 µM in [5]; 0.353 µM in experiment [6]. In addition, the TGI in experiment [7] is 0.264 µM; in [8] it was 0.302 µM; in experiment [9], 0.304 µM; in experiment [10], 0.353 µM.
As for `COc1ccc(CNC(=O)c2c(C)n([O-])c3cc(F)c(F)cc3[n+]2=O)cc1`, the GI50 was 13.8 µM in [1]; 14.1 µM in [2]; 15.7 µM in [3]; 5.22 µM in experiment [4]; 2.38 µM in experiment [5]; 10 µM in experiment [6]. Also, the GI50 is 11.7 µM in experiment [7], 12.7 µM in experiment [8], 13.1 µM in experiment [9] and 14.1 µM in experiment [10]. Also, the TGI was 26.8 µM in [1]; 27.1 µM in experiment [2]; 35.5 µM in experiment [3]; 17.5 µM in experiment [4]; 10.6 µM in [5]; 21.6 µM in experiment [6]. Further, the TGI in experiment [7] is 23.9 µM; in [8] it was 25.3 µM; in experiment [9] it was 25.8 µM; in [10], 27.1 µM.
In the case of `COc1ccc(-c2cc3c(N)ncnc3o2)cc1`, the GI50 in experiment [1], in [2], in experiment [3], in experiment [4], in [5] and in [6] was more than 25 µM in each case. The GI50 is more than 25 µM in experiment [7], more than 22.4 µM in experiment [8], more than 25 µM in experiment [9] and 9.44 µM in [10]. The TGI in experiment [1], in experiment [2], in experiment [3], in [4], in experiment [5] and in experiment [6] was more than 25 µM each time. For the same molecule, the TGI in experiment [7], in [8], in experiment [9] and in [10] was more than 25 µM throughout.
